{"source": "ChEMBL document CHEMBL3244364", "about": "“5,11-dimethyl-2,9-bis(phenylacetyl)-5,11-diazatetracyclo[6.2.2.0(2,7).0(4,9)]dodecane, a potent, novel analgesic” (J Med Chem, 1977)", "key": {"Rattus norvegicus [1]": {"tested_on": "Rattus norvegicus", "experiment": "Analgesic activity in sc dosed rat assessed as estimated dose to elevate pain reaction threshold to pressure applied to hind paw of to 50 mmHg", "type": "functional"}, "Rattus norvegicus [2]": {"tested_on": "Rattus norvegicus", "experiment": "Analgesic activity in rat assessed as elevate pain reaction threshold to pressure applied to hind paw of to 50 mmHg at 10 mg/kg, iv", "type": "functional, organism-based", "parameters": "dose 10 mg/kg"}, "Rattus norvegicus [3]": {"organism": "Rattus norvegicus", "experiment": "Toxicity in rat assessed as catatonia", "type": "organism-based", "conditions": "in vivo"}, "Rattus norvegicus [4]": {"organism": "Rattus norvegicus", "experiment": "Toxicity in rat assessed as exopthalmus", "type": "organism-based", "conditions": "in vivo"}, "Rattus norvegicus [5]": {"tested_on": "Rattus norvegicus", "experiment": "Ratio of morphine ED50 to compound ED50 for analgesic activity in sc dosed rat", "type": "functional"}, "Rattus norvegicus [6]": {"organism": "Rattus norvegicus", "experiment": "Toxicity in rat assessed as straub tail", "type": "organism-based", "conditions": "in vivo"}, "Rattus norvegicus [7]": {"tested_on": "Rattus norvegicus", "experiment": "Analgesic activity in rat assessed as elevate pain reaction threshold to pressure applied to hind paw of to 50 mmHg at 5 mg/kg, iv", "type": "functional, organism-based", "parameters": "dose 5 mg/kg"}, "Rattus norvegicus [8]": {"tested_on": "Rattus norvegicus", "experiment": "Analgesic activity in rat assessed as ability to prolong reaction time at 3 mg/kg, sc by tail-flick assay in presence of 10 mg/kg, sc naloxone", "type": "functional, organism-based"}, "Rattus norvegicus [9]": {"tested_on": "Rattus norvegicus", "experiment": "Analgesic activity in rat assessed as elevate pain reaction threshold to pressure applied to hind paw of to 50 mmHg at 50 mg/kg, sc", "type": "functional, organism-based", "parameters": "dose 50 mg/kg"}, "Rattus norvegicus [10]": {"tested_on": "Rattus norvegicus", "experiment": "Analgesic activity in rat assessed as ability to prolong reaction time at 3 mg/kg, sc by tail-flick assay", "type": "functional, organism-based", "parameters": "dose 3 mg/kg"}, "[11]": {"conditions": "Rattus norvegicus, sc, read-out: ED50"}}, "note": "Active and inactive are the calls of the source.", "data": [{"smiles": "CN1CC2C3CN(C)C4CC3(C(=O)CC3CCCCC3)C1CC24C(=O)CC1CCCCC1", "values": [{"measurement": "ED50", "setting": "Rattus norvegicus [1]; [11]", "value": "> 81", "unit": "mg/kg"}]}, {"smiles": "C=CCN1CC2C3CN(C)C4CC3(C(=O)Cc3ccccc3)C1CC24C(=O)Cc1ccccc1", "note": "(configuration not stated)", "values": [{"measurement": "Activity", "setting": "Rattus norvegicus [2]", "value": "inactive"}, {"measurement": "ED50", "setting": "Rattus norvegicus [1]; [11]", "value": "> 80", "unit": "mg/kg"}]}, {"smiles": "CN1CC2C3CN(C)C4CC3(C(=O)Cc3ccccc3)C1CC24C(=O)Cc1ccccc1", "note": "(racemic) [listing 1 of 2 here]", "values": [{"measurement": "Activity", "setting": "Rattus norvegicus [3]", "value": "Toxic"}, {"measurement": "Activity", "setting": "Rattus norvegicus [4]", "value": "Toxic"}, {"measurement": "Ratio ED50", "setting": "Rattus norvegicus [5]", "value": 1.5}, {"measurement": "Activity", "setting": "Rattus norvegicus [6]", "value": "Toxic"}, {"measurement": "ED50", "setting": "Rattus norvegicus [1]", "value": 1, "unit": "mg/kg"}]}, {"smiles": "C=CCN1CC2C3CN(CC=C)C4CC3(C(=O)Cc3ccccc3)C1CC24C(=O)Cc1ccccc1", "values": [{"measurement": "ED50", "setting": "Rattus norvegicus [1]; [11]", "value": "> 81", "unit": "mg/kg"}]}, {"smiles": "CCN1CC2C3CN(C)C4CC3(C(=O)Cc3ccccc3)C1CC24C(=O)Cc1ccccc1", "note": "(configuration not stated)", "values": [{"measurement": "ED50", "setting": "Rattus norvegicus [1]; [11]", "value": 29.9, "unit": "mg/kg"}]}, {"smiles": "CN1CC[C@]23c4c5ccc(O)c4O[C@H]2[C@@H](O)C=C[C@H]3[C@H]1C5", "note": "[MORPHINE]", "values": [{"measurement": "ED50", "setting": "Rattus norvegicus [1]; [11]", "value": 1.5, "unit": "mg/kg"}]}, {"smiles": "CN1CC2C3CN(C)C4CC3(C(=O)Cc3ccccc3)C1CC24C(=O)Cc1ccccc1", "note": "(single isomer, unassigned; (+))", "values": [{"measurement": "ED50", "setting": "Rattus norvegicus [1]", "value": ">80", "unit": "mg/kg"}]}, {"smiles": "O=C(Cc1ccccc1)C12CC3NCC1C1CNC2CC31C(=O)Cc1ccccc1", "values": [{"measurement": "ED50", "setting": "Rattus norvegicus [1]; [11]", "value": "> 81", "unit": "mg/kg"}]}, {"smiles": "CN1CC2C3CNC4CC3(C(=O)Cc3ccccc3)C1CC42C(=O)Cc1ccccc1", "note": "(configuration not stated)", "values": [{"measurement": "ED50", "setting": "Rattus norvegicus [1]; [11]", "value": 45, "unit": "mg/kg"}]}, {"smiles": "CN1CC2C3CN(C)C4CC3(C(=O)Cc3ccccc3)C1CC24C(=O)CC1CCCCC1", "note": "(configuration not stated)", "values": [{"measurement": "ED50", "setting": "Rattus norvegicus [1]; [11]", "value": 10.1, "unit": "mg/kg"}]}, {"smiles": "CCN1CC2C3CN(CC)C4CC3(C(=O)Cc3ccccc3)C1CC24C(=O)Cc1ccccc1", "values": [{"measurement": "ED50", "setting": "Rattus norvegicus [1]; [11]", "value": 41.1, "unit": "mg/kg"}]}, {"smiles": "CC(C)=CCN1CC[C@]2(C)c3cc(O)ccc3C[C@H]1[C@H]2C", "values": [{"measurement": "Activity", "setting": "Rattus norvegicus [7]", "value": "Active"}]}, {"smiles": "CN1CC2C3CN(C)C4CC3(C(=O)Cc3ccccc3)C1CC24C(=O)Cc1ccccc1", "note": "(single isomer, unassigned; (-))", "values": [{"measurement": "Ratio ED50", "setting": "Rattus norvegicus [5]", "value": 3}, {"measurement": "ED50", "setting": "Rattus norvegicus [1]", "value": 0.6, "unit": "mg/kg"}]}, {"smiles": "CN1CC2C3CN(C)C4CC3(C(=O)Cc3ccccc3)C1CC24C(=O)Cc1ccccc1", "note": "(racemic) [listing 2 of 2 here]", "values": [{"measurement": "Activity", "setting": "Rattus norvegicus [8]", "value": "inactive"}, {"measurement": "Activity", "setting": "Rattus norvegicus [9]", "value": "Active"}, {"measurement": "Activity", "setting": "Rattus norvegicus [10]", "value": "Active"}]}]}
